In patent publication US20160137610A1, “Compounds that Modulate EGFR Activity and Methods for Treating or Preventing Conditions Therewith” (Gatekeeper Pharmaceuticals, Inc., priority 2010, published 2016) one finds IC50 and GI50 data, which are given here for 5 molecules.

Format in all cases: cell-based
One test concerns A549 (KRAS G12). Put plainly: Cell proliferation/growth MTS assay in NSCLC cell lines. As to conditions: Homo sapiens, 72 hours.
The target of test [1] is Ba/F3 cells EGFR L858R/T790M (Homo sapiens, UniProt P00533, T790M/L858R, cells depend on it). Put plainly: Cell proliferation/growth MTS assay in EGFR mutant Ba/F3 cells. As to conditions: 72 hours, read-out: IC50 (nM) in Ba/F3 Cells, EGFR L858R/T790M. The text has this: (§1) The EGFR and iERBB2 mutant Ba/F3 cells and the NIH-3T3 cells have been previously characterized (Engelman, J. A. et al. Cancer Res 67, 11924-32 (2007); Yuza, Y. et al. Cancer Biol Ther 6 (2007)). The EGFR C797S and the ERBB2 T798I mutations are introduced using site directed mutagenesis using the Quick Change Site-Directed Mutagenesis kit (Stratagene; La Jolla, Calif.) according to the manufacturer's instructions (Mukohara, T. et al. J Natl Cancer Inst 97, 1185-94 (2005)). The oligonucleotide sequences are available upon request. All constructs are confirmed by DNA sequencing. The constructs are shuttled into the retroviral vector JP1540 using the BD Creator™ System (BD Biosciences). Ba/F3 of NIH-3T3 cells are infected with retrovirus according to standard protocols, as described previously (Engelman, J. A. et al. Proc Natl Acad Sci USA 102, 3788-93 (2005); Zhao, J. J. et al. Cancer Cell 3, 483-95 (2003)). Stable populations are obtained by selection in puromycin (2 μg/ml).
Ba/F3 cells EGFR L858R/T790M, sequence (P00533 whole entry T790M/L858R): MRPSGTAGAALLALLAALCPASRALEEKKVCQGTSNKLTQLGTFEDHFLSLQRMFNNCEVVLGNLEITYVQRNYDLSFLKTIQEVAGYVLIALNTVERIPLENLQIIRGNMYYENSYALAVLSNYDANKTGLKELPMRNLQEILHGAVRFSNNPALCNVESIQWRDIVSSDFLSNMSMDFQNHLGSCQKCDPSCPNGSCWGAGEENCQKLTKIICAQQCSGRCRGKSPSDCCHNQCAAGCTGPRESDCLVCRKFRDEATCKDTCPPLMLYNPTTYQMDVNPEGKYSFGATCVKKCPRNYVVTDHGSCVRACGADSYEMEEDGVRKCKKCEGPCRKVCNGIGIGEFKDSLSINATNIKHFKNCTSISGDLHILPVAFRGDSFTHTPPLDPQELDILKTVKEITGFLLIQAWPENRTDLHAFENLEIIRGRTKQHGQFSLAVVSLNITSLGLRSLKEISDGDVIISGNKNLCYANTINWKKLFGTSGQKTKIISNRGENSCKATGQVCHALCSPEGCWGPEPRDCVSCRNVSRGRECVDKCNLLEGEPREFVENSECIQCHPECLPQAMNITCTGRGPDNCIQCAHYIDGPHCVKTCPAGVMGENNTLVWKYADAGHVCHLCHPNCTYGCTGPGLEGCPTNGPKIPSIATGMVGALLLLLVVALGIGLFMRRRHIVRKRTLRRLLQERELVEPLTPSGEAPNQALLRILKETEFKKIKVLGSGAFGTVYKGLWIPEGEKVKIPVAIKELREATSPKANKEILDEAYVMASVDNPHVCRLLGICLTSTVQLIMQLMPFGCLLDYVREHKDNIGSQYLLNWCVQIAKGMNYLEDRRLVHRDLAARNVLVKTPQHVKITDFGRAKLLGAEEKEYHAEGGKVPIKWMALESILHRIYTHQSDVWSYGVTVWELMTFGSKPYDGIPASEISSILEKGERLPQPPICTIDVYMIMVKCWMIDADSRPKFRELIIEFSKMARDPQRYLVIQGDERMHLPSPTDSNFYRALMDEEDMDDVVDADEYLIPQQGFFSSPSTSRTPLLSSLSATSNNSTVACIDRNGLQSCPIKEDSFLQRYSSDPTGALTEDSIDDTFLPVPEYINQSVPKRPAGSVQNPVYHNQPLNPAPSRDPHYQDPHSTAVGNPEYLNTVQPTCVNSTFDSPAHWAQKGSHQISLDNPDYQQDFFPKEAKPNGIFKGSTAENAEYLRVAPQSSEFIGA
(§2) Growth and inhibition of growth is assessed by MTS assay. This assay, a colorimetric method for determining the number of viable cells, is based on the bioreduction of 3-(4,5-dimethylthiazol-2-yl)-5-(3-carboxymethoxyphenyl)-2-(4-sulfophenyl)-2H-tetrazolium (MTS) by cells to a formazan product that is soluble in cell culture medium, can be detected spectrophotometrically and was performed according to previously established methods (Mukohara, T. et al. J Natl Cancer Inst 97, 1185-94 (2005); Paez, J. G. et al. Science 304, 1497 500 (2004); Engelman, J. A. et al. J Clin Invest 116, 2695-2706 (2006). NSCLC or Ba/F3 cells are exposed to treatment for 72 hours and the number of cells used per experiment determined empirically and has been previously established. All experimental points are set up in six to twelve wells and all experiments are repeated at least three times. […] The curves are fitted using a non-linear regression model with a sigmoidal dose response.
(§3) Activity of various compounds of the invention was determined in vitro in EGFR mutant Ba/F3 cells according to the procedures set forth in Example 1.

The target in another test is Ba/F3 cells EGFR vIII (Homo sapiens, UniProt P00533, DELINS30-297G, cells depend on it). The test is described as above. As to conditions: 72 hours, read-out: IC50 (nM) in Ba/F3 Cells, EGFR vIII.
Ba/F3 cells EGFR vIII, sequence (P00533 with tags, fused parts or gaps DELINS30-297G): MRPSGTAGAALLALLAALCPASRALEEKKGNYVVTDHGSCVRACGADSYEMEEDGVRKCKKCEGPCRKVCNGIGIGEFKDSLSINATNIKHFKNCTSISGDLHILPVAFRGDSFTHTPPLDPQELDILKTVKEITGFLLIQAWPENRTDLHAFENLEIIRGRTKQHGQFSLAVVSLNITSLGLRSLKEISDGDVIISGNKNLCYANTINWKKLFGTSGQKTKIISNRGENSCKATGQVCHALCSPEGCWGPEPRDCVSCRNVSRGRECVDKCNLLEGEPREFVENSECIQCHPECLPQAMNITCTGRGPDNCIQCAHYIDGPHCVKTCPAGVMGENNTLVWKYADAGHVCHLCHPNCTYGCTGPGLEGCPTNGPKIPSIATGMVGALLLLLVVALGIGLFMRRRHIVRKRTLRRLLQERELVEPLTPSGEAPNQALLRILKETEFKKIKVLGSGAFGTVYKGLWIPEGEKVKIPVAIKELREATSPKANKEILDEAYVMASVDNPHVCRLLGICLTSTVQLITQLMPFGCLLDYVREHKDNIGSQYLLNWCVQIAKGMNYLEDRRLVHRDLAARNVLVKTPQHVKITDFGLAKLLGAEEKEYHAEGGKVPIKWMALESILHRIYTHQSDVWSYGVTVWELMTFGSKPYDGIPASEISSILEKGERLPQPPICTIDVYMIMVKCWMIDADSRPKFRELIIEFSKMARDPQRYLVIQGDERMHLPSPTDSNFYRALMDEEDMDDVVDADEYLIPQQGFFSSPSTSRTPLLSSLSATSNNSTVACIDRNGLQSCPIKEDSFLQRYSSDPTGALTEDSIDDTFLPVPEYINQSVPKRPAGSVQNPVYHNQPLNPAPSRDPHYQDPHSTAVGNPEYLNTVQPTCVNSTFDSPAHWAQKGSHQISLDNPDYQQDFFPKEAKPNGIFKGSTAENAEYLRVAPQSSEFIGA
Excerpt: as §1, §2, §3

Test [2] addresses Ba/F3 cells EGFR Del 19/T790M (Homo sapiens, UniProt P00533, DEL746-750/T790M, cells depend on it). Described as above. As to conditions: 72 hours, read-out: IC50 (nM) in Ba/F3 Cells, EGFR Del 19/T790M.
Excerpt: as §1, §2, §3

Test [3] deals with PC9 GR (EGFR Del 19/T790M). Put plainly: Cell proliferation/growth MTS assay in NSCLC cell lines. As to conditions: 72 hours. The text has this: (§4) The EGFR mutant NSCLC cell lines HCC827 (del E746_A750), H3255 (L858R), HCC827 GR (del E746_A750/MET amplified), H1975 (L858R/T790M) and PC9 (del E746_A750) have been previously characterized (Amann., J. et al. Cancer Res 65, 226-35 (2005); Engelman, J. A. et al. Science 316, 1039-43 (2007); Ono, M. et al. Mol Cancer Ther 3, 465-72 (2004); Ogino, A. et al. Cancer Res 67, 7807-14 (2007)). The PC9 GR (del E746_A750/T790M) cells are generated and verified to contain del E746_A750 in cis with T790M. The ERBB2 amplified (Calu-3 and H1819) and mutant (H1781) are obtained from ATCC. […]
(§5) Growth and inhibition of growth is assessed by MTS assay. This assay, a colorimetric method for determining the number of viable cells, is based on the bioreduction of 3-(4,5-dimethylthiazol-2-yl)-5-(3-carboxymethoxyphenyl)-2-(4-sulfophenyl)-2H-tetrazolium (MTS) by cells to a formazan product that is soluble in cell culture medium, can be detected spectrophotometrically and was performed according to previously established methods (Mukohara, T. et al. J Natl Cancer Inst 97, 1185-94 (2005); Paez, J. G. et al. Science 304, 1497 500 (2004); Engelman, J. A. et al. J Clin Invest 116, 2695-2706 (2006). NSCLC or Ba/F3 cells are exposed to treatment for 72 hours and the number of cells used per experiment determined empirically and has been previously established. […]

For another test, the system named is PC9 (EGFR Del 19). The description is as above. As to conditions: 72 hours.
Excerpt: as §4, §5

Ba/F3 cells EGFR Del 19/T790M, sequence (P00533 with tags, fused parts or gaps DEL746-750/T790M): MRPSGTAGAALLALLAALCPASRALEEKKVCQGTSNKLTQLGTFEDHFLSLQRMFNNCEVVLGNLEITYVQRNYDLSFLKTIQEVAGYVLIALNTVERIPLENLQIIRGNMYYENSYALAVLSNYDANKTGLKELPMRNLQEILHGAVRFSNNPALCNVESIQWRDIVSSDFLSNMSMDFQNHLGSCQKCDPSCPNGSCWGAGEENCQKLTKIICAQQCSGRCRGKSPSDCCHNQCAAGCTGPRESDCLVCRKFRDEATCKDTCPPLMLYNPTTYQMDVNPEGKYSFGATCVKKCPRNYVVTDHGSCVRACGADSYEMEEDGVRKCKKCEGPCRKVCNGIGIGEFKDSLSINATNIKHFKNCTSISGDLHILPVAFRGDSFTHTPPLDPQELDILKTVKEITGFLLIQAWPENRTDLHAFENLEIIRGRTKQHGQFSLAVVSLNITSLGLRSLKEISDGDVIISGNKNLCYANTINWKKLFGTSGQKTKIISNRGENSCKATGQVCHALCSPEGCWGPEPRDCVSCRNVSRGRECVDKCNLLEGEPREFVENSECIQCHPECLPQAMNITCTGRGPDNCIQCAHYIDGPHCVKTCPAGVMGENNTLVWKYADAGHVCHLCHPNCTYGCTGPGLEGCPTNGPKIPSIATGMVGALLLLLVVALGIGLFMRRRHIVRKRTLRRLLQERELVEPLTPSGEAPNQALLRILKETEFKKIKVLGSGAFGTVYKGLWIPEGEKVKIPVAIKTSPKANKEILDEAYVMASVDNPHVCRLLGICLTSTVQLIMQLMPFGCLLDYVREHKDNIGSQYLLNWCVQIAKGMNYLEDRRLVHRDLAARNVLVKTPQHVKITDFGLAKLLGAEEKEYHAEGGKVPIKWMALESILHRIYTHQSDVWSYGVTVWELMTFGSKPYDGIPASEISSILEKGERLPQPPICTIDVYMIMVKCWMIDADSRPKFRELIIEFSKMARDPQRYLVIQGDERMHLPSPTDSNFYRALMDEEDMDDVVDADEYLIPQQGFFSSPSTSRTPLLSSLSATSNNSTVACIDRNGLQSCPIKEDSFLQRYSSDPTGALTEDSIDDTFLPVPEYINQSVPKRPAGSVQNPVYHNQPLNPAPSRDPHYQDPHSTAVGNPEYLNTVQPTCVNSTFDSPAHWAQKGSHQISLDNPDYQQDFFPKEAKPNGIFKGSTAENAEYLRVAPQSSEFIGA

For `C=CC(=O)Nc1cccc(Nc2ncc(Cl)c(Nc3ccccc3C(=O)NC)n2)c1` [Compound XIII-1, 2-((2-((3-acrylamidophenyl)amino)-5-chloropyrimidin-4-yl)amino)-N-methylbenzamide], the IC50 in the test with A549 (KRAS G12) was found to be 814 nM. Moreover, the GI50 in test [1] came out at 6 nM; at Ba/F3 cells EGFR vIII it was 3 nM; in test [2], 3 nM.

On to `C=CC(=O)Nc1ccc(OC)c(Nc2ncc(Cl)c(Nc3ccccc3C(=O)NC)n2)c1` [Compound XIII-2, 2-((2-((5-acrylamido-2-methoxyphenyl)amino)-5-chloropyrimidin-4-yl)amino)-N-methylbenzamide], for which the IC50 is greater than 3300 nM with A549 (KRAS G12), 104 nM in test [3] and 118 nM in the test on PC9 (EGFR Del 19). In addition, the GI50 in test [1] worked out at 65 nM; at Ba/F3 cells EGFR vIII it was 570 nM; in test [2], 56 nM.

Consider `C=CC(=O)Nc1cccc(CNc2ncc(Cl)c(Nc3ccccc3S(=O)(=O)C(C)C)n2)c1` [Compound XIII-3, N-(3-(((5-chloro-4-((2-(isopropylsulfonyl)phenyl)amino)pyrimidin-2-yl)amino)methyl)phenyl)acrylamide], for which the GI50 in test [1] came to 721 nM; in test [2], 670 nM.

With `C=CC(=O)Nc1cccc(Nc2ncc(Cl)c(Nc3ccccc3S(=O)(=O)C(C)C)n2)c1` [Compound XIII-4, N-(3-((5-chloro-4-((2-(isopropylsulfonyl)phenyl)amino)pyrimidin-2-yl)amino)phenyl)acrylamide], the GI50 in test [1] was determined as 17 nM; in test [2], 7 nM.

Turning to `C=CC(=O)Nc1cccc(Nc2ncc(Cl)c(Nc3ccccc3S(=O)(=O)NC)n2)c1` [Compound XIII-5, N-(3-((5-chloro-4-((2-(N-methylsulfamoyl)phenyl)amino)pyrimidin-2-yl)amino)phenyl)acrylamide], the GI50 came out at 9 nM in test [1] and 11 nM in test [2].
